# Results from US20220207902A1, “SYSTEM AND METHOD FOR AUTOMATICALLY DISCOVERING, CHARACTERIZING, CLASSIFYING AND SEMI-AUTOMATICALLY LABELING ANIMAL BEHAVIOR AND QUANTITATIVE PHENOTYPING OF BEHAVIORS IN ANIMALS” (President and Fellows of Harvard College, priority 2012, published 2022).
# Entries after “also recorded” stand apart in the source; their conditions may differ.
# Tests used:
# mice [1] = assay: conventional two-compartment behavioral choice assay (odor-soaked filter paper); type: in vivo; details: odors soaked into filter papers placed in the small compartment of a cage divided by a parafilm curtain; FIGS. 4A and 4B
# Source text: (§1) FIGS. 4A-4E depict assessment of odor-driven innate behaviors in two and three dimensions. FIGS. 4A and B depict a conventional two-compartment behavioral choice assay. FIG. 4C, left, depicts a new behavioral arena. FIG. 4C, right, depicts a chart generated through use of custom-written Matlab code to track animal trajectories.
# (§2) FIGS. 4A-4E depict the assessment of odor-driven innate behaviors in two and three dimensions. […] Odors are soaked into filter papers, which are placed in the small compartment of a cage divided by a parafilm curtain. This assay suffers from incomplete control of gas-phase odorant concentration, poorly defined spatial odor gradients and experimental variability due to the physical interaction of the animal with the odor source. The present inventors have therefore developed a new behavioral arena (FIG. 4C, left), in which odors are delivered to each of 4 corners in gas phase via high-performance computer-controlled Teflon valves.
# mice [2] = assay: odor quadrant arena, odors delivered in gas phase to one of four corners, animal tracked by 2D tracking or depth camera; type: in vivo
# Source text: as §1, §2
# Odors are delivered to one of four quadrants via computer-controlled olfactometers, which can deliver precisely timed pulses or square waves of odorants at defined concentrations. […]
SMILES,innate behavioral response to odor (attraction or avoidance) (mice [1]),"posture (aspect ratio versus height) by depth camera (mice [2]; depth camera, compared with control conditions (stretched and low to the ground), FIG. 4E)","qualitative and quantitative avoidance behavior (mice [2]; odor delivered in gas phase in the upper right corner, FIG. 4D)"
C=CCc1ccc(O)c(OC)c1 [eugenol],robust innate behavioral attraction,–,–
CC1=NC(C)SC1C (stereo not shown) [TMT],avoidance,become compressed (from the perspective of the overhead camera) and elevate their noses,avoidance behaviors that are extraordinarily robust and well controlled; also recorded: avoidance behavior
CCCCCC(C)=O [2-heptanone],avoidance,–,–
"Cc1cnc(C)cn1 [2,5-DMP]",avoidance,–,–
CCCC(=O)O [butyric acid],avoidance,–,–
